# According to a melting point compilation (Tetko et al.; mined from patent text by program, amines drawn as free bases though some values may be those of a salt):
row,Structure (SMILES),melting point [°C]
1,Cc1nc(Cn2c(NC3CCN(CCc4c(C)nc5sccn5c4=O)CC3)nc3ccccc32)cs1,130
2,O=CC12CC(c3ccccc31)c1ccccc12,102
3,c1cc2cc([C@@H]3CO3)ccc2s1,72 to 76
4,CCCCCC(C)(C)NC(=O)CCl,36 to 37
5,c1cc(C2=NOC(C3CC3)C2)ccn1 (stereo not given),102 to 108
6,COCNC(=O)NC(=O)C(C#N)=NOC,164 to 165
7,O=C1OC(c2ccccc2)(c2ccc(-c3ccccc3)cc2)C(O)=C1OCc1ccccc1 (stereo not given),190 to 195
8,CC(C)=NN(C)C1=NOCc2ccc(Cl)cc21,105 to 106
9,COc1ccc2c(c1)C13CCN(CC4CC4)C(C2)C1(Cc1ccccc1)CCC1(C3)OCCO1 (stereo not given),165 to 167
10,Oc1ccc(SC2CC3CC(Sc4ccc(O)cc4)C2C3)cc1 (stereo not given),142 to 146
11,NS(=O)(=O)c1cc2c(s1)S(=O)(=O)CC=C2,210 to 212
12,O=C1CCN(CC(c2ccccc2)c2ccccc2)CC1,140 to 142
13,Oc1cc(Cl)nc(Cl)c1,201 to 202
14,CCCOc1ccc(-c2scc(-c3ccccc3Cl)c2CC(=O)OC)cc1,81 to 82
15,CCOC(=O)Cc1cc(O)n[nH]1,114 to 117
16,Nc1ccc2ccc(-c3ccccc3Cl)nc2n1,193

row,Structure (SMILES),melting point [°C]
1,Cn1nc(C(F)(F)F)cc1Oc1cc(C#N)cc(-c2cc(C(F)(F)F)nn2C)n1,164 to 165
2,O=C(NCCCc1ccncc1)N(CC=Cc1ccccc1)CCC12CC3CC(CC(C3)C1)C2,130 to 134
3,CC(C)(C)C(=O)c1ccc(C(=O)NC(=O)c2ccc(C(=O)C(C)(C)C)cc2)cc1,131 to 132
4,C1=CC(c2ccccc2)(c2ccccc2)CCS1,78
5,O=C(CC(=O)C(CF)CF)c1ccc(OCc2ccccc2)cc1,184 to 188
6,c1ccc(CC2=NOC3(CCNCC3)C2)cc1,51 to 54
7,CCCCC(=O)c1c(-c2ccc3cc(OC(Cc4ccccc4)C(=O)O)ccc3c2)oc2ccccc12 (stereo not given),144 to 145
8,C=CC[C@@H]1C[C@@H](COS(C)(=O)=O)NC1=O,62 to 63
9,COC(=O)c1ccc(Cl)c(Cn2nc(C(F)(F)F)n(C)c2=O)c1Cl,109
10,C=CCSc1ccc(OC)nn1,25 to 27
11,CCCCCCCCCCCCCCCCCCCC1CN(C(=O)c2cc(OC)c(OC)c(OC)c2)CCN1C(=O)c1cc(OC)c(OC)c(OC)c1 (stereo not given),76
12,N#Cc1ccc(-c2ccc(F)cc2)nc1Cl,178
13,Nc1ncc(-c2noc(-c3cnn4c(C(F)(F)F)cc(-c5ccc(C(F)(F)F)c(Cl)c5)nc34)n2)cn1,279
14,Oc1nc2ccccc2n2c(C(F)(F)F)nnc12,> 300
15,CN(C)C1(c2ccccc2)CCC(=CC(=O)N2CCC(c3c[nH]c4ccccc34)C2)CC1 (stereo not given),94 to 97
16,COc1ccc(C(C#N)C(C)C)cc1OC (stereo not given),45.5 to 49

# Next, values leading:
row,melting point [°C],Structure (SMILES)
1,121 to 123,O=C(CCCCN1CCN(c2cccc(Cl)c2Cl)CC1)N1CCc2ccccc21
2,85 to 86,CC(C)=CCN(c1ccc(OCc2ccccc2)cc1)C1CCN(C(=O)C2CN(C)CCN2CCC(C)C)CC1 (stereo not given)
3,206 to 209,CCc1nc2c(N)nc3ccccc3c2n1CC(C)(C)OCCS(C)(=O)=O
4,173 to 175,Cc1ccc(Nc2ncccc2N)c(C)c1[N+](=O)[O-]
5,117 to 118,CN1CCN(C(=N)Nc2ccccc2-c2cccc(F)c2)CC1
6,221 to 222,O=C1NN=C(c2ccc(NC(=O)C3(Cl)CC3)cc2)C2CC12 (stereo not given)
7,81 to 83,COC(=O)COc1ccc(C(=O)C(C)N2CCN(c3ccncc3)CC2)cc1 (racemic)
8,180 to 181,COC(=O)c1cc2c(nc1C)C(=O)CCC2
9,240,CCn1c(N)c(-c2ncc[nH]2)c(=O)c2ccc(-c3ccc(CCCC(=O)NCc4ccncc4)cc3)nc21
10,89 to 92,COC(=O)COc1ccc(OC/C=C(/c2ccc(Cl)cc2)c2ccc(I)cc2)cc1C
11,148 to 150,O=C(O)CCC(=NO)c1ccc2c3c(oc2c1)CCCC3
12,267,CCOc1cc(OC2CCN(C)CC2)c(F)c([C@H](Nc2ccc(C(=N)N)cc2)C(=O)O)c1
13,143 to 144,COc1cc(F)c(C(=O)Nc2c(Cl)cncc2Cl)cc1OC1CCCC1
14,232 to 234,Cc1c(CC(=O)O)c2cc(OCc3ccc4ccccc4n3)ccc2n1Cc1ccc(C(=O)O)cc1
15,106 to 107,COc1ccc(OC(C)(C)C(=O)O)cc1OCCCc1cn(-c2ccc(C(F)(F)F)cn2)nc1C(C)C
16,168 to 170,Cc1cc(-n2ncc(-c3ccc(S(C)(=O)=O)cc3)c(-c3ccc(F)cc3)c2=O)ccc1F
17,164 to 165,C[C@@H](O[C@H]1CCCN(Cc2n[nH]c(=O)[nH]2)[C@H]1c1ccccc1)c1cccc(Cl)c1
18,252 to 253,Cc1c(Cc2ccccc2)c(=O)n(Cc2ccccc2)c2cc(OCC(N)=O)cc(OCC(N)=O)c12
19,75,C=CCN1CCN(C(C#CSc2ccccc2)=Nc2ccc(OC)cc2)CC1

row,melting point [°C],Structure (SMILES)
1,81 to 82,COc1ccccc1OCCCc1oc(N2CCOCC2)nc1-c1ccc(Cl)cc1
2,272 to 275,CCOC(=O)c1ncc2[nH]c3ccc([N+](=O)[O-])cc3c2c1C
3,197 to 200,O=C1COc2ccc(NC(=O)C(=O)N3CCC(Cc4ccc(F)cc4)CC3)cc2N1
4,244 to 247,COc1ccc2nc(NC(=O)C(CC3CCCC3)c3ccc(S(=O)(=O)NCc4ccco4)cc3)sc2n1 (stereo not given)
5,143 to 145,CON=C(C)COc1c(-c2ccc(S(C)(=O)=O)cc2)cnn(-c2ccc(F)c(F)c2)c1=O
6,162 to 163,CC1CN(Cc2ccccc2)CC(NC(=O)c2n[nH]c3ccccc23)CN1C (stereo not given)
7,198 to 203,Cc1ccc(N2C(=O)C(O)=C(C(=O)c3ccc(C(C)C)cc3)C2c2ccc(N3CCN(C)CC3)cc2)nn1 (stereo not given)
8,78,Clc1nc2cccc3c2n1CCC3
9,260 to 267,COc1cc2ncnc(Nc3ccc4[nH]ccc4c3)c2cc1I
10,114 to 117,Cc1ccc(N2CCCN(c3ccnc4sc(C(N)=O)c(N)c34)CC2)cc1[N+](=O)[O-]
11,202 to 205,O=c1c2c(Br)cc(Br)cc2n(Cc2ccccc2)c(=O)n1Cc1ccccc1Cl
12,98 to 100,CCCCOc1ccc(S(=O)(=O)Nc2onc(C)c2Br)cc1
13,218,COC(=O)c1cccc(C2C(C(=O)c3ccc(OC)cc3)=C(O)C(=O)N2c2nnc(C)s2)c1 (stereo not given)
14,273 to 275,CSc1cnc2c(-c3ccccc3)csc2c1O
15,133 to 136,Cc1ncccc1C(=O)NCC1CCN(C[C@H]2COc3ccc(Cl)cc3O2)CC1
16,160 to 161,O=c1nc(-c2ccnc(-c3cccs3)c2)sc2ccccc12
17,174 to 176,C[C@@H]1CN(c2nccc(Oc3ccc(NC(=O)c4cc(F)cc(N5CCCCC5)c4)c4ccccc34)n2)C[C@H](C)O1
18,143 to 145,N#CC1=Cc2ccccc2N(C(N)=O)c2ccccc21
19,360 to 361,O=c1c2ccc(Cl)cc2[nH]c2c(O)nn(-c3ccc(Cl)cc3Cl)c(=O)c12
